Source: US7750040B2, “Thiophene derivatives” (priority 2004, dated 2010)
pEC50: −log10 of the molar value.

Tests used:
[1] = molecular target: recombinant human S1P1 receptor (Homo sapiens, UniProt P21453); assay: GTPγS assay to determine EC50 values; type: biochemical; details: 35S-GTPγS binding, membrane preparations of CHO cells expressing recombinant human S1P1 receptor
Procedure: The pH was 7.4. Test compounds are dissolved and diluted in 100% DMSO and pre-incubated at room temperature for 30 min in 150 μl of the above assay buffer, in the absence of ^35S-GTPγS. After addition of 50 μl of ^35S-GTPγS, the assay is incubated for 1 h at room temperature. […] Membrane-bound ^35S-GTPγS is measured with a TopCount from Packard Biosciences.
Specific binding is determined by subtracting non-specific binding from maximal binding. Maximal binding is the amount of cpm bound to the Multiscreen plate in the presence of 10 μM of S1P. Non-specific binding is the amount of binding in the absence of an agonist in the assay.

circulating lymphocytes = assay: Assessment of in vivo efficacy: circulating lymphocytes after oral administration; details: 3 h after oral administration of 30 mg/kg, normotensive male Wistar rats, compared to vehicle group; mean±SEM
Procedure: The efficacy of the compounds of Formula (I) is assessed by measuring the circulating lymphocytes after oral administration of 30 mg/kg of a compound of Formula (I) to normotensive male Wistar rats. The animals are housed in climate-controlled conditions with a 12 h-light/dark cycle, and have free access to normal rat chow and drinking water. […] Full blood is subjected to hematology using Advia Hematology system (Bayer Diagnostics, Zürich, Switzerland).
All data are presented as mean±SEM. Statistical analyses are performed by analysis of variance (ANOVA) using Statistica (StatSoft) and the Student-Newman-Keuls procedure for multiple comparisons. The null hypothesis is rejected when p<0.05.

Sequence of recombinant human S1P1 receptor (P21453 whole entry): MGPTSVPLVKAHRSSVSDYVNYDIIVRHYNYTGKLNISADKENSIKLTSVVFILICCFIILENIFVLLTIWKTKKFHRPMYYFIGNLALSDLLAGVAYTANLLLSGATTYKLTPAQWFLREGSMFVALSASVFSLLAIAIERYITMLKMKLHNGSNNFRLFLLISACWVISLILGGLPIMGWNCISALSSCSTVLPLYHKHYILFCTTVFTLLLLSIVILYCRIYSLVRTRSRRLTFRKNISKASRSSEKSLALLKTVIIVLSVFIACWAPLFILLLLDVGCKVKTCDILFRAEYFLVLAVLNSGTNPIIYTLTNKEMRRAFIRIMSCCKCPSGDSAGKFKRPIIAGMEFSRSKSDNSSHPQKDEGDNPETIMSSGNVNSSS

Compound	pEC50 [1]	Lymphocyte counts (circulating lymphocytes)
Cc1cc(C)cc(NCC(=O)c2sc(C)c3c2C[C@@H]2[C@H]3C2(C)C)c1 [Example 157, 2-(3,5-Dimethyl-phenylamino)-1-((1aS,5aR)-1,1,2-trimethyl-1,1a,5,5a-tetrahydro-3-thia-cyclopropa[a]pentalen-4-yl)-ethanone]	8.05	
COc1cc(OC[C@@H](O)CO)ccc1CNC(=O)c1sc(C)c2c1C[C@@H]1[C@H]2C1(C)C [Example 7, (1aS,5aR)-1,1,2-Trimethyl-1,1a,5,5a-tetrahydro-3-thia-cyclopropa[a]pentalene-4-carboxylic acid 4-((S)-2,3-dihydroxy-propoxy)-2-methoxy-benzylamide]	6.74	−46 ± 3%
Cc1cc(CCC(=O)c2sc(C)c3c2C[C@@H]2[C@H]3C2(C)C)cc(C)c1OC[C@@H](O)CO [Example 51, 3-[4-((S)-2,3-Dihydroxy-propoxy)-3,5-dimethyl-phenyl]-1-((1aS,5aR)-1,1,2-trimethyl-1,1a,5,5a-tetrahydro-3-thia-cyclopropa[a]pentalen-4-yl)-propan-1-one]		−44 ± 4%
Cc1cc(CNC(=O)c2sc(C)c3c2C[C@@H]2[C@H]3C2(C)C)cc(C)c1OC[C@@H](O)CO [Example 5, (1aS,5aR)-1,1,2-trimethyl-1,1a,5,5a-tetrahydro-3-thia-cyclopropa[a]pentalene-4-carboxylic acid 4-((S)-2,3-dihydroxy-propoxy)-3,5-dimethyl-benzylamide]	7.12	
Cc1sc(C(=O)CCc2ccc(OC[C@@H](O)CO)c(Cl)c2)c2c1[C@H]1[C@@H](C2)C1(C)C [Example 75, 3-[3-Chloro-4-((S)-2,3-dihydroxy-propoxy)-phenyl]-1-((1aS,5aR)-1,1,2-trimethyl-1,1a,5,5a-tetrahydro-3-thia-cyclopropa[a]pentalen-4-yl)-propan-1-one]		−57 ± 5%
COc1cc(OCC(C)O)ccc1CNC(=O)c1sc(C)c2c1C[C@@H]1[C@H]2C1(C)C (mixture of isomers) [Example 24, (1aS,5aR)-1,1,2-trimethyl-1,1a,5,5a-tetrahydro-3-thia-cyclopropa[a]pentalene-4-carboxylic acid 4-((R/S)-2-hydroxy-propoxy)-2-methoxy-benzylamide]	6.79	−40 ± 4%
COc1ccccc1CCC(=O)c1sc(C)c2c1C[C@@H]1[C@H]2C1(C)C [Example 48, 3-(2-methoxy-phenyl)-1-((1aS,5aR)-1,1,2-trimethyl-1,1a,5,5a-tetrahydro-3-thia-cyclopropa[a]penta-len-4-yl)-propan-1-one]	7.80	
COc1cc(OCCF)ccc1CNC(=O)c1sc(C)c2c1C[C@@H]1[C@H]2C1(C)C [Example 36, (1aS,5aR)-1,1,2-Trimethyl-1,1a,5,5a-tetrahydro-3-thia-cyclopropa[a]pentalene-4-carboxylic acid 4-(2-fluoro-ethoxy)-2-methoxy-benzylamide]	6.52	
Cc1cc(CCC(=O)c2sc(C)c3c2C[C@@H]2[C@H]3C2(C)C)ccc1OC[C@@H](O)CO [Example 86, 3-[4-((S)-2,3-Dihydroxy-propoxy)-3-methyl-phenyl]-1-((1aS,5aR)-1,1,2-trimethyl-1,1a,5,5a-tetrahydro-3-thia-cyclopropa[a]pentalen-4-yl)-propan-1-one]		−47 ± 4%

Continued, in another order:

pEC50 [1]	Compound	Lymphocyte counts (circulating lymphocytes)
8.52	Cc1sc(C(=O)CNc2ccc(CCO)cc2)c2c1[C@H]1[C@@H](C2)C1(C)C [Example 163, 2-[4-(2-Hydroxy-ethyl)-phenylamino]-1-((1aS,5aR)-1,1,2-trimethyl-1,1a,5,5a-tetrahydro-3-thia-cyclopropa[a]pentalen-4-yl)-ethanone]	
8.52	Cc1sc(C(=O)CCc2ccc(OC[C@@H](O)CO)cc2Cl)c2c1[C@H]1[C@@H](C2)C1(C)C [Example 81, 3-[2-Chloro-4-((S)-2,3-dihydroxy-propoxy)-phenyl]-1-((1aS,5aR)-1,1,2-trimethyl-1,1a,5,5a-tetrahydro-3-thia-cyclopropa[a]pentalen-4-yl)-propan-1-one]	
9.22	CCc1sc(C(=O)CCc2cc(C)c(OC[C@@H](O)CO)c(C)c2)c2c1[C@@H]1[C@H](C2)C1(C)C [Example 137, 3-[4-((S)-2,3-Dihydroxy-propoxy)-3,5-dimethyl-phenyl]-1-((1aR,5aS)-2-ethyl-1,1-dimethyl-1,1a,5,5a-tetrahydro-3-thia-cyclopropa[a]pentalen-4-yl)-propan-1-one]	
9.00	Cc1cc(CCC(=O)c2sc(C)c3c2C[C@@H]2[C@H]3C2(C)C)cc(Cl)c1OC[C@H](O)CO [Example 71, 3-[3-Chloro-4-((R)-2,3-dihydroxy-propoxy)-5-methyl-phenyl]-1-((1aS,5aR)-1,1,2-trimethyl-1,1a,5,5a-tetrahydro-3-thia-cyclopropa[a]pentalen-4-yl)-propan-1-one]	
8.30	Cc1cc(CCC(=O)c2sc(C)c3c2C[C@@H]2[C@H]3C2(C)C)cc(Cl)c1OCC(C)O (stereo partly drawn) [Example 74, 3-[3-Chloro-4-(2-hydroxy-propoxy)-5-methyl-phenyl]-1-((1aS,5aR)-1,1,2-trimethyl-1,1a,5,5a-tetrahydro-3-thia-cyclopropa[a]pentalen-4-yl)-propan-1-one]	
8.40	CCc1sc(C(=O)CCc2cc(C)c(OCCCO)c(C)c2)c2c1[C@@H]1[C@H](C2)C1(C)C [Example 139, 1-((1aR,5aS)-2-Ethyl-1,1-dimethyl-1,1a,5,5a-tetrahydro-3-thia-cyclopropa[a]pentalen-4-yl)-3-[4-(3-hydroxy-propoxy)-3,5-dimethyl-phenyl]-propan-1-one]	
8.70	COc1cc(OC[C@@H](O)CO)ccc1CCC(=O)c1sc(C)c2c1C[C@@H]1[C@H]2C1(C)C [Example 49, 3-[4-((S)-2,3-Dihydroxy-propoxy)-2-methoxy-phenyl]-1-((1aS,5aR)-1,1,2-trimethyl-1,1a,5,5a-tetrahydro-3-thia-cyclopropa[a]pentalen-4-yl)-propan-1-one]	
